From patent US20230286973A1, “PROTEIN SECRETION INHIBITORS” (KEZAR LIFE SCIENCES, priority 2020, published 2023) come the findings set out here.

Like-named read-outs stand apart in the source and are kept apart here.

For data set [1], the system named is PD1-ss+10aa/Gaussia Luciferase. Nature of the data set: Dox-Induced PD1-ss-Gluc Assay. It is filed as cell-based. As to conditions: 24 hr Dox induction, 293FRT/TO cells, read-out: 24 hr Dox Inducible PD1ssGluc 293FRT/TO: Mean IC50. In a few lines: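 Compounds were added in DMSO/media with doxycycline and incubated at 37 °C, 5% CO2, on 293 T-REx cells plated one day earlier. These cells stably express, under tetracycline-regulated control, a Gaussia luciferase fused to the PD1 signal peptide plus 10 residues. Structures drawn without stereochemistry were tested as stereoisomer mixtures.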

Data set [2] deals with multiple myeloma cell line U266B1. The data set is described as follows: U266 Cell Viability Assay. It is filed as cell-based, human. To be noted: Homo sapiens, U-266, 48 h, U266B1 cells, Celltiter-Glo. Summed up:
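Luminescent ATP read-out (CellTiter-Glo) after 48 h compound exposure at 37° C., 5% CO2; cells maintained in RPMI 1640/10% FBS/2 mM glutamine/pen-strep, compounds diluted in DMSO/media.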

The subject of data set [3] is TNFα-FL/Gaussia Luciferase. The data set is described as follows: Dox Induced TNFα-FL-Gluc Assay. The format is cell-based. To be noted: for IC50: 24 hr Dox induction, 293FRT/TO cells, read-out: 24 hr Dox Inducible TNFaFLGluc 293FRT/TO: Mean IC50; for 24 hr Dox Inducible TNFaFLGluc 293FRT/TO: TNF/PD1: ratio of TNFaFLGluc IC50 to PD1ssGluc IC50. Summed up:
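Cell line: stable Flp-In 293 T-REx, TNFα-FL(1-233)-Gaussia luciferase fusion, T-REx-inducible. Plated day -1; compounds in DMSO/media + doxycycline, 37 °C, 5% CO2. Undefined stereocentres = mixture tested.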

Data set [4] relates to IL-2-FL/Gaussia Luciferase. Nature of the data set: Dox Induced IL2-FL-Gluc Assay. The format is cell-based. To be noted: for IC50: 24 hr Dox induction, 293FRT/TO cells, read-out: 24 hr Dox Inducible IL2FLGluc 293FRT/TO: Mean IC50; for 24 hr Dox Inducible IL2FLGluc 293FRT/TO: IL2/PD1: ratio of IL2FLGluc IC50 to PD1ssGluc IC50. In a few lines:
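Stable Flp-In 293 T-REx line, Tet-regulated IL-2 (aa 1-153)–Gaussia luciferase fusion; hygromycin/blasticidin selected. Plated day -1; compound + doxycycline added next day; 37° C, 5% CO2.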

The nature of data set [5]: Liver Microsome Stability Assay (monkey). To be noted: monkey liver microsomes, with NADPH, 1.0 uM compound. In general terms: Microsomes from liver hold many membrane-bound enzymes, among them those of drug oxidation.
Procedure: (§1) Stability of a compound was assessed in the presence of liver microsomes from various sources—mouse, rat, monkey and human liver microsomes. 1.0 uM compound, 0.4% DMSO in 0.1 M Potassium Phosphate with 1.0 mg/mL liver microsomes, were incubated at 37° C. with or without 1 mM NADPH. The samples were quenched at 0, and 30 minutes.
In data set [6] the test system is multiple myeloma cell line NCI-H929. The data set is described as follows: H929 Cell Viability Assay. It is filed as cell-based, human. As to conditions: Homo sapiens, NCI-H929, 48 h, NCI-H929 cells, Celltiter-Glo. Summed up:
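Cells in RPMI 1640/10% FBS; compound dilutions in DMSO/media; 48 h, 37° C, 5% CO2; CellTiter-Glo luciferase readout for viability.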
A general note: In ATP-based viability assays light output follows the ATP content of the culture.

The nature of data set [7]: Liver Microsome Stability Assay (mouse). To be noted: mouse liver microsomes, with NADPH, 1.0 uM compound.
Procedure: as §1
A short description of data set [8]: Liver Microsome Stability Assay (rat). As to conditions: rat liver microsomes, with NADPH, 1.0 uM compound.
Procedure: as §1
For data set [9], the system named is HER3-ss+4aa/Gaussia Luciferase. Nature of the data set: Dox-Induced Her3-ss-Gluc Assay. As to conditions: 24 hr Dox induction, 293FRT/TO cells, read-out: 24 hr Dox Inducible Her3(ss + 4)Gluc 293FRT/TO: Mean IC50. The format is cell-based. In a few lines: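 Flp-In 293 T-REx cells, stable HER3-ss+4aa/Gaussia luciferase insert, hygromycin/blasticidin selected; plated day before; compound in DMSO/media + doxycycline; 37° C., 5% CO2.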

Data set [10] can be described thus: Liver Microsome Stability Assay (human). As to conditions: human liver microsomes, with NADPH, 1.0 uM compound.
Procedure: as §1

For the compound `Cc1nc(/C=C/c2csc(NC(=O)c3cccn3Cc3ccncc3)n2)co1` [Compound B2, (E)-N-(4-(2-(2-methyloxazol-4-yl)vinyl)thiazol-2-yl)-1-(pyridin-4-ylmethyl)-1H-pyrrole-2-carboxamide], the IC50 in data set [1] was 220 nM; in [3] it was above 25000 nM; in data set [4] it was above 25000 nM; in [9], above 25000 nM. Besides, the EC50 in [2] and in [6] was above 25000 nM each time. Besides, the “24 hr Dox Inducible TNFaFLGluc 293FRT/TO: TNF/PD1” value in [3] was above 114. In addition, the “24 hr Dox Inducible IL2FLGluc 293FRT/TO: IL2/PD1” value in [4] stood at 110. The “Liver Microsome Stability (Multiple Species): Monkey - % Remaining after 30 min w/NADPH” value in data set [5] is listed as 0.9%. In data set [7], the “Liver Microsome Stability (Multiple Species): Mouse - % Remaining after 30 min w/NADPH” value turned out to be 7.06%. Also, the “Liver Microsome Stability (Multiple Species): Rat - % Remaining after 30 min w/NADPH” value in data set [8] was found to be 1.8%. The “Liver Microsome Stability (Multiple Species): Human - % Remaining after 30 min w/NADPH” value in data set [10] is 0.69%.
For the compound `CC(=O)N[C@@H](C)c1ccc(N2CCC[C@@H]2c2csc(NC(=O)c3cccn3Cc3ccncc3)n2)cc1` [Compound A73, N-(4-((R)-1-(4-((S)-1-acetamidoethyl)phenyl)pyrrolidin-2-yl)thiazol-2-yl)-1-(pyridin-4-ylmethyl)-1H-pyrrole-2-carboxamide], the IC50 in [1] is 26.6 nM; in data set [3], 350 nM; in data set [4], 88.5 nM; in data set [9], 23.6 nM. The figures for the EC50 in data set [2] and in data set [6] were above 25000 nM and 3750 nM, respectively. Besides, in [3], the “24 hr Dox Inducible TNFaFLGluc 293FRT/TO: TNF/PD1” value is recorded as 13.2. Besides, the “24 hr Dox Inducible IL2FLGluc 293FRT/TO: IL2/PD1” value in data set [4] came to 3.3. Moreover, in [5], the “Liver Microsome Stability (Multiple Species): Monkey - % Remaining after 30 min w/NADPH” value amounted to 0.08%. The “Liver Microsome Stability (Multiple Species): Mouse - % Remaining after 30 min w/NADPH” value in data set [7] is on record as 0.14%. In addition, the “Liver Microsome Stability (Multiple Species): Rat - % Remaining after 30 min w/NADPH” value in data set [8] turned out to be 15%. Also, the “Liver Microsome Stability (Multiple Species): Human - % Remaining after 30 min w/NADPH” value in data set [10] turned out to be 0.1%.
Turning to `CN(C)c1cccc(-c2csc(NC(=O)c3cccn3Cc3ccncc3)n2)c1` [Compound A76, N-(4-(3-(dimethylamino)phenyl)thiazol-2-yl)-1-(pyridin-4-ylmethyl)-1H-pyrrole-2-carboxamide], the IC50 was 292 nM in data set [1], 6660 nM in [3], 1510 nM in data set [4] and 830 nM in data set [9]. The figures for the EC50 in [2] and in data set [6] were above 25000 nM and 22400 nM, respectively. Also, the “24 hr Dox Inducible TNFaFLGluc 293FRT/TO: TNF/PD1” value in data set [3] worked out at 22.9. In [4], the “24 hr Dox Inducible IL2FLGluc 293FRT/TO: IL2/PD1” value amounted to 5.2. Besides, the “Liver Microsome Stability (Multiple Species): Monkey - % Remaining after 30 min w/NADPH” value in data set [5] was 1.43%. Moreover, the “Liver Microsome Stability (Multiple Species): Mouse - % Remaining after 30 min w/NADPH” value in data set [7] turned out to be 11%. Further, in [8], the “Liver Microsome Stability (Multiple Species): Rat - % Remaining after 30 min w/NADPH” value stood at 4.99%. Further, the “Liver Microsome Stability (Multiple Species): Human - % Remaining after 30 min w/NADPH” value in [10] was determined as 2.44%.
Turning to `CC(=O)Nc1cc(F)c(N2CCC[C@@H]2c2csc(NC(=O)c3cccn3Cc3ccnc(F)c3)n2)c(F)c1` [Compound A96, (R)-N-(4-(1-(4-acetamido-2,6-difluorophenyl)pyrrolidin-2-yl)thiazol-2-yl)-1-((2-fluoropyridin-4-yl)methyl)-1H-pyrrole-2-carboxamide], the IC50 in data set [1] was found to be 1.49 nM; in data set [3], 40.5 nM; in data set [4], 4.21 nM; in [9] it was 4.2 nM. Also, the values for the EC50 in data set [2] and in [6] were above 25000 nM and 34.2 nM, respectively. For the same compound, in [3], the “24 hr Dox Inducible TNFaFLGluc 293FRT/TO: TNF/PD1” value is on record as 27.2. Also, the “24 hr Dox Inducible IL2FLGluc 293FRT/TO: IL2/PD1” value in data set [4] was 2.8. Further, the “Liver Microsome Stability (Multiple Species): Monkey - % Remaining after 30 min w/NADPH” value in data set [5] was 0.12%. Moreover, the “Liver Microsome Stability (Multiple Species): Mouse - % Remaining after 30 min w/NADPH” value in [7] was found to be 0.28%. In data set [8], the “Liver Microsome Stability (Multiple Species): Rat - % Remaining after 30 min w/NADPH” value stood at 1%. In [10], the “Liver Microsome Stability (Multiple Species): Human - % Remaining after 30 min w/NADPH” value came to 1.42%.
Take `CC(=O)NC/C=C/c1csc(NC(=O)c2cccn2Cc2ccncc2)n1` [Compound E30, (E)-N-(4-(3-acetamidoprop-1-en-1-yl)thiazol-2-yl)-1-(pyridin-4-ylmethyl)-1H-pyrrole-2-carboxamide]: the IC50 in data set [1] (mean), in [3] (mean), in [4] (mean) and in data set [9] (mean) was above 25000 nM in each case. Further, the EC50 in data set [2] and in data set [6] was above 25000 nM in each case. Also, the “24 hr Dox Inducible IL2FLGluc 293FRT/TO: IL2/PD1” value in data set [4] ('<=>' given where both are I.A.) is given as 1. In data set [5], the “Liver Microsome Stability (Multiple Species): Monkey - % Remaining after 30 min w/NADPH” value was 9.96%. Besides, the “Liver Microsome Stability (Multiple Species): Mouse - % Remaining after 30 min w/NADPH” value in data set [7] came to 26.4%. In addition, the “Liver Microsome Stability (Multiple Species): Rat - % Remaining after 30 min w/NADPH” value in data set [8] is 37.7%. The “Liver Microsome Stability (Multiple Species): Human - % Remaining after 30 min w/NADPH” value in data set [10] is 20.8%.
On to `CC(C)n1cnc(/C=C/c2csc(NC(=O)c3cccn3Cc3ccncc3)n2)c1` [Compound B37, (E)-N-(4-(2-(1-isopropyl-1H-imidazol-4-yl)vinyl)thiazol-2-yl)-1-(pyridin-4-ylmethyl)-1H-pyrrole-2-carboxamide], for which the IC50 in data set [1] was 68.3 nM; in data set [3], above 25000 nM; in [4], above 25000 nM; in data set [9] it was above 25000 nM. Further, the EC50 in [2] and in [6] was above 25000 nM each time. The “24 hr Dox Inducible TNFaFLGluc 293FRT/TO: TNF/PD1” value in data set [3] is given as above 366. Also, the “24 hr Dox Inducible IL2FLGluc 293FRT/TO: IL2/PD1” value in data set [4] was above 370. For the same compound, the “Liver Microsome Stability (Multiple Species): Monkey - % Remaining after 30 min w/NADPH” value in data set [5] stood at 0.13%. For the same compound, the “Liver Microsome Stability (Multiple Species): Mouse - % Remaining after 30 min w/NADPH” value in data set [7] stood at 2.42%. For the same compound, the “Liver Microsome Stability (Multiple Species): Rat - % Remaining after 30 min w/NADPH” value in data set [8] is recorded as 6.38%. Further, the “Liver Microsome Stability (Multiple Species): Human - % Remaining after 30 min w/NADPH” value in data set [10] was 0.13%.
`CNC(=O)c1ccc(N2CCC[C@@H]2c2csc(NC(=O)c3cccn3Cc3ccncc3)n2)cc1` [Compound A17, (R)-N-(4-(1-(4-(methylcarbamoyl)phenyl)pyrrolidin-2-yl)thiazol-2-yl)-1-(pyridin-4-ylmethyl)-1H-pyrrole-2-carboxamide]: the IC50 in data set [1] came out at 6.69 nM; in [3], 178 nM; in data set [4], 16.7 nM; in data set [9] it was 11.5 nM. For the same compound, the EC50 (commonly the concentration needed to bring the measured effect to its halfway point) in data set [2] is above 25000 nM; in data set [6], 161 nM. In addition, the “24 hr Dox Inducible TNFaFLGluc 293FRT/TO: TNF/PD1” value in data set [3] worked out at 26.6. For the same compound, in data set [4], the “24 hr Dox Inducible IL2FLGluc 293FRT/TO: IL2/PD1” value came to 2.5. For the same compound, the “Liver Microsome Stability (Multiple Species): Monkey - % Remaining after 30 min w/NADPH” value in data set [5] was 0.22%. For the same compound, in data set [7], the “Liver Microsome Stability (Multiple Species): Mouse - % Remaining after 30 min w/NADPH” value was 2.94%. Also, the “Liver Microsome Stability (Multiple Species): Rat - % Remaining after 30 min w/NADPH” value in data set [8] came out at 0.38%. For the same compound, the “Liver Microsome Stability (Multiple Species): Human - % Remaining after 30 min w/NADPH” value in data set [10] amounted to 0.32%.
